Earlier results on 2 compounds are cited in US10864174B2, “Method maintaining iron homeostasis with shogaols” (priority 2016, dated 2020).

Molecules are shown by their SMILES.

Series [1] has as its system HCT-116 human colon cancer cells. As to conditions: one value given for both cell lines, read-out: IC50, growth inhibition.
In series [2] the test system is H1299 human lung cancer cells. As to conditions: one value given for both cell lines, read-out: IC50, growth inhibition.
The test system of series [3] is arachidonic acid pathway. The following applies: compared with [6]-gingerol.
The test system of series [4] is nitric oxide (NO) synthesis. The following applies: compared with [6]-gingerol.

What is called IC50 is the concentration at which inhibition is half-maximal. For the compound `CCCCC[C@H](O)CC(=O)CCc1ccc(O)c(OC)c1` [[6]-gingerol, reference compound], the IC50 in series [1] and in series [2] was approximately 150 µM each time.
Take `CCCCC/C=C/C(=O)CCc1ccc(O)c(OC)c1` [[6]-shogaol]: the IC50 in series [1] and in series [2] was approximately 8 µM each time. The “inhibitory effects on the arachidonic acid pathway” value in series [3] is on record as “much stronger inhibitory effects”. Further, the “inhibitory effects on nitric oxide (NO) synthesis” value in series [4] is “much stronger inhibitory effects”.
